This is an account of results in patent US8765763B2, “Substituted piperazines as CGRP antagonists” (Boehringer Ingelheim International GmbH, priority 2009, dated 2014).

T1 sequence (Q16602 23-461): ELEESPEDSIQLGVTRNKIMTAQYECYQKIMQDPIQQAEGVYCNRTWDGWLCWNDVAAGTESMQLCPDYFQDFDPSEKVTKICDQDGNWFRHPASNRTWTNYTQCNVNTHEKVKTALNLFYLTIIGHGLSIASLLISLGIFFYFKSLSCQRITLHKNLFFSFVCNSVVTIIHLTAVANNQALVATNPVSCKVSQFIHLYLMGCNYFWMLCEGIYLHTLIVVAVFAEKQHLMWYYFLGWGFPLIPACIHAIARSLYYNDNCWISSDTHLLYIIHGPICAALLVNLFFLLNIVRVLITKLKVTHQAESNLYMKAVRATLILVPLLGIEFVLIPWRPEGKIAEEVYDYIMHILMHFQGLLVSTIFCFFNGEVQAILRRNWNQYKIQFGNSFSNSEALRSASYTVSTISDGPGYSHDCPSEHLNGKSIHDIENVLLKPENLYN
T1 sequence (O60894 27-148): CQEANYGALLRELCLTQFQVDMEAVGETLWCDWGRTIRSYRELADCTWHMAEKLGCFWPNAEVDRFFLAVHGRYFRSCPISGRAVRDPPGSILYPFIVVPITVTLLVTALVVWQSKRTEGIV

This assay has as its target T1, human CGRP receptor (Homo sapiens, UniProt O60894+Q16602).
T1 construct: SK-N-MC membranes (˜20 μg protein) are incubated for 180 minutes at ambient temperature; endogenous in cells; host or cells: SK-N-MC cells (membranes)
In words: Binding studies with SK-N-MC cells (expressing the human CGRP receptor), 125I-iodotyrosyl-CGRP displacement on SK-N-MC membranes. Particulars: 50 pM 125I-iodotyrosyl-CGRP, 180 minutes at ambient temperature. The procedure: A. Binding Studies with SK-N-MC Cells (Expressing the Human CGRP Receptor)
SK-N-MC membranes (˜20 μg protein) are incubated for 180 minutes at ambient temperature with 50 pM ^125I-iodotyrosyl-Calcitonin-Gene-Related Peptide and increasing concentrations of the test substances in a total volume of 250 μl (assay buffer: 10 mM tris, 50 mM NaCl, 5 mM MgCl2, 1 mM EDTA, pH=7.4). The incubation is ended by rapid filtration through GF/B-glass fibre filters treated with polyethyleneimine (0.1%) using a cell harvester. The protein-bound radioactivity is measured using a gamma counter. Non-specific binding is defined as the bound radioactivity after the presence of 1 μM BIBN4096BS during incubation.
The concentration binding curves are analysed using computer-aided non-linear curve fitting.
As for `O=C(CN1C(=O)[C@H](CC2CCCCCC2)NCC1c1cc(F)cc(F)c1)Nc1ccc2c(c1)C[C@@]1(C2)C(=O)Nc2ncccc21` (single isomer, unassigned) [Example 13 Diastereomer 2], the Ki – broadly, a measure of affinity in units of concentration, obtained from inhibition or displacement – worked out at 0.71 nM.

`O=C(CN1C(=O)C2(COCCOC2)NCC1c1cc(F)cc(F)c1)Nc1cc2c(cn1)CC1(C2)C(=O)Nc2ncccc21` (stereo not shown) [Example 2] showed a Ki of 1.02 nM.

In turn, `O=C(CN1C(=O)C(C2CCOCC2)NCC1c1cc(F)cc(F)c1)Nc1ccc2c(c1)C[C@@]1(C2)C(=O)Nc2ncccc21` (single isomer, unassigned) [Example 15a] displayed a Ki of 0.1 nM.

On to `O=C(CN1C(=O)C2(CCC3(CCOCC3)CC2)NC[C@H]1c1cc(F)cc(F)c1)Nc1ccc2c(c1)C[C@@]1(C2)C(=O)Nc2ncccc21` [Example 14, 2-((R)-3-(3,5-difluoro-phenyl)-5-oxo-12-oxa-1,4-diaza-dispiro[5.2.5.2]hexadecan-4-yl)-N-((R)-2′-oxo-1,1′,2′,3-tetrahydrospiro[inden-2,3′-pyrrolo[2,3-b]pyridin]-5-yl)acetamide], for which the Ki was determined as 0.07 nM.

`CN1C[C@@H](c2cc(F)cc(F)c2)N(CC(=O)Nc2ccc3c(c2)C[C@@]2(C3)C(=O)Nc3ncccc32)C(=O)C12COCCOC2` [Example 17, 2-((R)-3-(3,5-difluorophenyl)-1-methyl-5-oxo-8,11-dioxa-1,4-diazaspiro[5.6]dodecan-4-yl)-N-((R)-2′-oxo-1,1′,2′,3-tetrahydrospiro[inden-2,3′-pyrrolo[2,3-b]pyridin]-5-yl)acetamide]: the affinity, expressed as Ki, was 0.03 nM.

In turn, `CC(C)(C)OC(=O)N1C[C@@H](c2ccccc2)N(CC(=O)Nc2ccc3c(c2)C[C@@]2(C3)C(=O)Nc3ncccc32)C(=O)C12COCCOC2` [Example 20, (R)-tert-butyl 5-oxo-4-(2-oxo-2-((R)-2′-oxo-1,1′,2′,3-tetrahydrospiro[inden-2,3′-pyrrolo[2,3-b]pyridin]-5-ylamino)ethyl)-3-phenyl-8,11-dioxa-1,4-diazaspiro[5.6]dodecane-1-carboxylate] yielded a Ki of 0.96 nM.

Regarding `O=C(CN1C(=O)[C@@H](CC2CCCCCC2)NCC1c1cc(F)cc(F)c1)Nc1ccc2c(c1)C[C@@]1(C2)C(=O)Nc2ncccc21` (single isomer, unassigned) [Example 16a], the Ki amounted to 5.4 nM.

As for `O=C(CN1C(=O)[C@@H](CC2CCCCCC2)NCC1c1cc(F)cc(F)c1)Nc1ccc2c(c1)C[C@@]1(C2)C(=O)Nc2ncccc21` (single isomer, unassigned) [Example 16b], the Ki amounted to 0.13 nM.

With `COc1cccc(C2CNC3(COCCOC3)C(=O)N2CC(=O)Nc2ccc3c(c2)C[C@@]2(C3)C(=O)Nc3ncccc32)c1` (stereo partly drawn) [Example 18, 2-(3-(3-methoxyphenyl)-5-oxo-8,11-dioxa-1,4-diazaspiro[5.6]dodecan-4-yl)-N—((R)-2′-oxo-1′,2′,3-tetrahydrospiro[inden-2,3′-pyrrolo[2,3-b]pyridin]-5-yl)acetamide], the Ki came to 0.84 nM.

In turn, `O=C(CN1C(=O)C2(COCCOC2)NC[C@H]1c1cc(F)cc(F)c1)Nc1ccc2c(c1)C[C@@]1(C2)C(=O)Nc2ncccc21` [Example 1a, 2-((R)-3-(3,5-difluorophenyl)-5-oxo-8,11-dioxa-1,4-diazaspiro[5.6]dodecan-4-yl)-N-((R)-2′-oxo-1,1′,2′,3-tetrahydrospiro[indene-2,3′-pyrrolo[2,3-b]pyridin]-5-yl)acetamide] had a Ki of 0.03 nM.

As to `O=C(CN1C(=O)C2(COCCOC2)NC[C@H]1c1cc(F)cc(F)c1)Nc1cc2c(cc1Cl)CC1(C2)C(=O)Nc2ncccc21` (stereo partly drawn) [Example 19, N-(5-chloro-2′-oxo-1,1′,2′,3-tetrahydrospiro[inden-2,3′-pyrrolo[2,3-b]pyridin]-6-yl)-2-((R)-3-(3,5-difluorophenyl)-5-oxo-8,11-dioxa-1,4-diazaspiro[5.6]dodecan-4-yl)acetamide], affinity was put at a Ki of 1.41 nM.

Regarding `O=C(CN1C(=O)C2(COCCOC2)NC[C@H]1c1cc(F)cc(F)c1)Nc1ccc2c(c1)C[C@]1(C2)C(=O)Nc2ncccc21` [Example 1b, 2-((R)-3-(3,5-difluorophenyl)-5-oxo-8,11-dioxa-1,4-diazaspiro[5.6]dodecan-4-yl)-N-((S)-2′-oxo-1,1′,2′,3-tetrahydrospiro[inden-2,3′-pyrrolo[2,3-b]pyridin]-5-yl)acetamide], affinity was put at a Ki of 1.77 nM.

The molecule `O=C(CN1C(=O)[C@H](CC2CCCCCC2)NCC1c1cc(F)cc(F)c1)Nc1ccc2c(c1)C[C@@]1(C2)C(=O)Nc2ncccc21` (single isomer, unassigned) [Example 13 Diastereomer 1] had a Ki of 0.72 nM.

The molecule `O=C(CN1C(=O)C2(COCCOC2)NCC1c1cccc(F)c1)Nc1ccc2c(c1)C[C@@]1(C2)C(=O)Nc2ncccc21` (stereo partly drawn) [Example 23, 2-(3-(3-fluorophenyl)-5-oxo-8,11-dioxa-1,4-diazaspiro[5.6]dodecan-4-yl)-N—((R)-2′-oxo-1,1′,2′,3-tetrahydrospiro[inden-2,3′-pyrrolo[2,3-b]pyridin]-5-yl)acetamide] came in with a Ki of 0.05 nM.

In the case of `O=C(CN1C(=O)C2(COCCOC2)NC[C@H]1c1cc(F)cc(F)c1)Nc1cnc2c(c1)CC1(C2)C(=O)Nc2ncccc21` (stereo partly drawn) [Example 24, 2-((R)-3-(3,5-difluorophenyl)-5-oxo-8,11-dioxa-1,4-diazaspiro[5.6]dodecan-4-yl)-N-(2′-oxo-1′,2′,5,7-tetrahydrospiro[cyclopenta[b]pyridin-6,3′-pyrrolo[2,3-b]pyridin]-3-yl)acetamide], the Ki worked out at 0.07 nM.

`O=C(CN1C(=O)C(CC2CCCCCC2)NCC1c1cc(F)cc(F)c1)Nc1ccc2c(c1)CC1(C2)C(=O)Nc2ncccc21` (stereo not shown) [Example 3] yielded a Ki of 0.72 nM.

With `O=C(CN1C(=O)C(C2CCOCC2)NCC1c1cc(F)cc(F)c1)Nc1ccc2c(c1)C[C@@]1(C2)C(=O)Nc2ncccc21` (single isomer, unassigned) [Example 15b], the affinity corresponds to a Ki of 0.39 nM.

As for `O=C(CN1C(=O)C2(COCCOC2)NC[C@H]1c1ccc(F)cc1)Nc1ccc2c(c1)C[C@@]1(C2)C(=O)Nc2ncccc21` [Example 22, 2-((R)-3-(4-fluorophenyl)-5-oxo-8,11-dioxa-1,4-diazaspiro[5.6]dodecan-4-yl)-N-((R)-2′-oxo-1,1′,2′,3-tetrahydrospiro[inden-2,3′-pyrrolo[2,3-b]pyridin]-5-yl)acetamide], the Ki is 0.11 nM.

`O=C(CN1C(=O)C2(COCCOC2)NC[C@H]1c1ccccc1)Nc1ccc2c(c1)C[C@@]1(C2)C(=O)Nc2ncccc21` [Example 21, N—((R)-2′-oxo-1,1′,2′,3-tetrahydrospiro[inden-2,3′-pyrrolo[2,3-b]pyridin]-5-yl)-2-((R)-5-oxo-3-phenyl-8,11-dioxa-1,4-diazaspiro[5.6]dodecan-4-yl)acetamide]: affinity was put at a Ki of 0.44 nM.
